Source: PubChem BioAssay (NCI)
Where “and” joins values, the source holds several entries; their conditions need not be identical. Identical values can stand only once.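 Exposure lasted 48 hours, with cells grown in 96-well plates and compounds tested at five concentrations. Here, GI50 denotes the concentration required for 50% inhibition of growth. TGI: concentration producing complete growth inhibition.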

What was measured:
Assay in all cases: NCI tumour cell line growth inhibition, 48 h
KM20L2 colon = test system: KM20L2 colon
MDA-N = test system: MDA-N
SNB-78 CNS = test system: SNB-78 CNS
XF 498 CNS = test system: XF 498 CNS
LXFL 529 NSCLC = test system: LXFL 529 NSCLC
HOP-18 NSCLC = test system: HOP-18 NSCLC
DMS 273 small cell lung = test system: DMS 273 small cell lung
HS 578T breast = test system: HS 578T breast
P388 leukemia = test system: P388 leukemia

Row | Compound | GI50 (KM20L2 colon) [µM] | TGI (KM20L2 colon) | GI50 (MDA-N) [µM] | TGI (MDA-N) [µM] | GI50 (SNB-78 CNS) [µM] | TGI (SNB-78 CNS) [µM] | GI50 (XF 498 CNS) [µM] | TGI (XF 498 CNS) | GI50 (LXFL 529 NSCLC) [µM] | TGI (LXFL 529 NSCLC) [µM] | GI50 (HOP-18 NSCLC) [µM] | TGI (HOP-18 NSCLC) [µM] | GI50 (DMS 273 small cell lung) [µM] | TGI (DMS 273 small cell lung) | GI50 (HS 578T breast) [µM] | TGI (HS 578T breast) [µM] | GI50 (P388 leukemia) [µM] | TGI (P388 leukemia) [µM]
1 | O=C(O)c1ccc(C(=O)O)c(C(=O)O)c1.[NH-]C1CCCCC1[NH-].[Pt+2] | 0.768 | 27.7 µM | 1.15 | 24.7 | 24.6 | 99.9 | 1.8 | 16.5 µM | 5.94 | > 100 | 11.8 | 84.6 | 0.417 | 9.31 µM | 13.5 | 84.5 | 0.262 | 14.6
2 | CCOC(=O)Nc1ccc2c(c1)N(C(=O)CCN(CC)CC)c1ccccc1S2 | 13.9 | 38.7 µM and 39.7 µM |  |  | 41 |  | 0.626 | 33.4 µM and 10 µM |  | 42.5 |  |  |  | > 68.8 µM and 77.9 µM |  |  |  | 32.2
